# Conditions: not given
row,SMILES,solubility [mM]
1,CC1=C(C(=O)O)N2C(=O)[C@@H](NC(=O)[C@H](N)C3=CCC=CC3)[C@H]2SC1,61
2,OC[C@H]1O[C@H](OC[C@H]2O[C@H](O[C@]3(CO)O[C@H](CO)[C@@H](O)[C@@H]3O)[C@H](O)[C@@H](O)[C@@H]2O)[C@H](O)[C@@H](O)[C@H]1O,402
3,O=C(OCC(O)CO)c1ccccc1Nc1ccnc2cc(Cl)ccc12 (stereo not given),107
4,O=C(O)c1c(O)cccc1O,62
5,CC(C)OC(=O)COc1ccc(Cl)cc1Cl,0.142
6,CCC(N)Cc1c[nH]c2ccccc12 (stereo not given),2.71
7,CN(C)c1ccc(C(=O)O)cc1,0.4
8,O=C(Nc1ccccc1)Nc1ccccc1,0.707
9,O=C(O)c1ccc(Cl)c(Cl)c1,0.32

# Same assay, conditions: 20 °C
row,SMILES,solubility [mM]
1,Nc1cnn(-c2ccccc2)c(=O)c1Br,0.752
2,CNC(=O)N(C)c1nc2ccccc2s1,0.267
3,CCCI,6.3
4,CCCCCC(=O)OC,10.2
5,CCC(C)N (stereo not given),1530
6,CC(C)C1=CC2=CC[C@@H]3[C@](C)(CCC[C@@]3(C)C(=O)O)[C@H]2CC1,0.16
7,CN(C)C(=O)NC1CCCCCCC1,6.05
8,O=Cc1ccc2c(c1)OCO2,23.3
9,Cc1ccc(Cl)cc1,0.837
10,CCCCOC(=O)C(C)O (stereo not given),274
11,CNc1ccccc1C(=O)O,1.32
12,CCOC(=O)CC,188
13,CCNc1nc(NC(C)(C)C)nc(OC)n1,0.577
14,c1ccc(C(c2ccccc2)(c2ccccc2)N2CCOCC2)cc1,6.07e-05
15,Oc1cc(O)ncn1,22.3
16,CCCCCCCC(=O)OC,0.407
17,Clc1cccc(-c2ccccc2Cl)c1,0.0026
18,Clc1ccc(-c2c(Cl)cc(Cl)c(Cl)c2Cl)c(Cl)c1,3.37e-05
19,O=C(O)[C@H]1CCCC[C@@H]1C(=O)O (relative stereo),11.6
20,CN(C)C(=O)Nc1ccc(Oc2ccc(Cl)cc2)cc1,0.0127
21,Clc1cccc(-c2c(Cl)cccc2Cl)c1,0.00015
22,CC(C)(S)[C@@H](N)C(=O)O,744
23,C=C(C(=O)O)c1ccccc1,8.77
24,Cc1cc(Cl)ccc1N=CN(C)C,1.37

# Same assay, conditions: 21 °C
row,SMILES,solubility [mM]
1,CN(C)[C@@H]1C(O)=C(C(N)=O)C(=O)[C@@]2(O)C(O)=C3C(=O)c4c(O)ccc(Cl)c4[C@@H](O)[C@H]3C[C@@H]12,3.26

# Same assay, conditions: 22 °C
row,SMILES,solubility [mM]
1,O=C(O)[C@@H](O)[C@H](O)[C@H](O)[C@@H](O)C(=O)O,229
2,CC(Oc1ccccc1Cl)C(=O)O (stereo not given),5.98
3,COC(=O)[C@@H]1C2CCC(C[C@@H]1OC(=O)c1ccccc1)N2C (stereo not given in full),5.93
4,O=C(c1ccccc1)c1c(O)cc(O)cc1O,13.5
5,CCC1(c2ccccc2)C(=O)NCNC1=O,2.29

# Same assay, conditions: 24 °C
row,SMILES,solubility [mM]
1,CCNP(=S)(OC)O/C(C)=C/C(=O)OC(C)C (stereo not given),0.391

# Same assay, conditions: 25 °C
row,SMILES,solubility [mM]
1,NS(=O)(=O)c1cc2c(cc1C(F)(F)F)NC(Cc1ccccc1)NS2(=O)=O (stereo not given),0.256
2,Clc1cc(Cl)cc(Cl)c1,0.0331
3,C=C(c1ccccc1)c1ccccc1,0.0366
4,S=C=Nc1cccc(Cl)c1,0.112
5,CC1(C)C(=O)[C@@]2(C)CC[C@@H]1C2,14.1
6,CC(C)C(C)C(C)C,0.0201
7,Cc1ccc(C)c2c(C)cccc12,0.0123
8,CCCN(CCC)CCC,5.22
9,CCCC(C)=O,499
10,O=C(O)CNC(=O)c1ccccc1,20.9
11,Cc1cc(=O)[nH]c(=S)[nH]1,3.75
12,Cc1cc(C)c2ccccc2n1,11.4
13,CC(=O)OCC(C)C,54.2
14,CC(C)CC(C)C,0.0549
15,CC(=O)CC(C)C,190
16,CCc1ccc(O)cc1,33.5
17,Clc1ccc(Cl)c(-c2cc(Cl)c(Cl)cc2Cl)c1,4.72e-05
18,Cc1ccc(C)c(O)c1,29
19,Ic1ccc(I)cc1,0.00424
20,CN1C(=O)C(C)(C2=CCCCC2)C(=O)N=C1O (stereo not given),1.84

row,SMILES,solubility [mM]
1,O=[N+]([O-])c1ccccc1O,18
2,CC1CCC(C(C)C)C(O)C1 (stereo not given),2.91
3,Cc1c(N)c(=O)n(-c2ccccc2)n1C,3580
4,NC(=O)CC[C@H](N)C(=O)O,283
5,C#CCCCCC,0.977
6,Fc1cc(F)c(F)c(F)c1,4.95
7,O=C(O)C(c1ccccc1)c1ccccc1,0.598
8,ClCBr,129
9,CN1CC(O)N(c2nnc(C(C)(C)C)s2)C1=O (stereo not given),13.3
10,Cc1ccc2ccccc2c1,0.173
11,Cc1cccc2ccccc12,0.181
12,CCC(C)Cl (stereo not given),10.8
13,CNC(=O)ON=C(C)SC,358
14,O=C(O)c1cccc([N+](=O)[O-])c1C(=O)O,95.2
15,C=CCBr,31.7
16,CC1CCCCC1,0.152
17,O=C(O)c1cccc(O)c1,52.5
18,CCOP(=O)(OCC)OCC,2740
19,O=C(O)c1ccnc(C(=O)O)c1,14.9
20,O=C(O)COc1ccc(Cl)cc1Cl,3.06

row,SMILES,solubility [mM]
1,Cc1c2ccccc2c(C)c2ccccc12,0.000271
2,CC(=O)O[C@@H](C(=O)O)c1ccccc1,58.7
3,C1=CCCC1,7.85
4,CCCC(C)O (stereo not given),506
5,OC(c1ccccc1)(c1ccccc1)c1ccccc1,5.5
6,c1cc2cccc3c4cccc5cccc(c(c1)c23)c54,1.59e-06
7,NCC[C@H](O)C(=O)N[C@@H]1C[C@H](N)[C@@H](O[C@H]2O[C@H](CN)[C@@H](O)[C@H](O)[C@H]2O)[C@H](O)[C@H]1O[C@H]1O[C@H](CO)[C@@H](O)[C@H](N)[C@H]1O,316
8,CCCC[C@@H](O)CC,34.4
9,c1ccc2c(c1)Nc1ccccc1S2,0.00798
10,C=C(Cl)CSC(=S)N(CC)CC,0.447
11,CCCCC(C)C,0.0253
12,Clc1ccc(Br)cc1,0.235
13,C[C@]12CC[C@H]3C(=CCc4cc(O)ccc43)[C@@H]1CCC2=O,0.00525
14,O=C1NC(=O)c2ccccc21,2.45
15,CC(C)OC(C)(C)C,4.3
16,CC[C@H](O)C(C)C,197
17,CC(C)(C)CC(=O)OCC(=O)[C@@]1(O)CC[C@H]2[C@@H]3CCC4=CC(=O)CC[C@]4(C)[C@H]3[C@@H](O)C[C@@]21C,0.00308
18,COc1cc(-c2ccc(N)c(OC)c2)ccc1N,0.246
19,CCOC(=O)c1c[nH]c(=S)[nH]c1=O,7.97
20,C[C@]12CC[C@H](O)CC1=CC[C@@H]1[C@@H]2CC[C@]2(C)C(=O)CC[C@@H]12,0.129

# Same assay, conditions: 27 °C
row,SMILES,solubility [mM]
1,CC(=O)[C@@]1(O)CC[C@H]2[C@@H]3CCC4=CC(=O)CC[C@]4(C)[C@H]3CC[C@@]21C,0.0196
2,C#C[C@]1(O)CC[C@H]2[C@@H]3CCc4cc(O)ccc4[C@H]3CC[C@@]21C,0.0381
3,Cc1cc2ccccc2c2ccc3ccccc3c12,0.000256

# Same assay, conditions: 28 °C
row,SMILES,solubility [mM]
1,CCOC(=O)[C@H](Cc1ccc(O)cc1)NC(C)=O,13.8

# Same assay, conditions: 30 °C
row,SMILES,solubility [mM]
1,COP(=S)(OC)Oc1ccc(C#N)cc1,0.189
2,COc1ccc([N+](=O)[O-])cc1,3.85
3,CCN(CC)CCOC(=O)c1ccc(N)cc1,40
4,CN(C)CCN(Cc1ccccc1)c1ccccn1,2.3
5,Cc1cccc(Nc2ccccc2C(=O)O)c1C,0.0829
6,COc1ccc2ccc(=O)oc2c1CC=C(C)C,0.0491
